Laboratory results as given in US10683295B2, “Chiral N-acyl-5,6,7(8-substituted)-tetrahydro-[1,2,4]triazolo[4,3-A]pyrazines as selective NK-3 receptor antagonists, pharmaceutical composition, methods for use in NK-3 receptor mediated disorders and chiral synthesis thereof” (Ogeda SA, priority 2011, dated 2020).

System: luteinizing hormone (LH) plasma levels
Assay: Castrated male rat model, circulating luteinizing hormone (LH)
Type: in vivo
Conditions: single intravenous 10 mg/kg dose, castrated male Sprague-Dawley rats, 1 hour after dosing
Source text: Castrated Male Rat Model to Assess the Effect of Compound of Invention on Circulating Levels of Luteinizing Hormone (LH).
Thus, a castrated rat model is used to provide a broad index for measurement of LH inhibition as a marker of test compound inhibition of the GnRH signaling pathway.
Castrated adult male Sprague-Dawley (SD) rats (150-175 g) were purchased from Janvier (St Berthevin, France). […] The animals were allowed 2 weeks of postoperative recovery prior to study. Animals were handled on a daily basis. Standard diet and tap water were provided ad libitum. […] On the study day, animals were acclimated to the procedure room for a period of one hour prior to the initiation of the experiment.
Compounds of the invention were formulated as apyrogen water with 90 g/L (2-Hydroxypropyl)-β-CycloDextrin.
After basal sampling (TO) a single dose of compounds of the invention or vehicle was administrated intravenously to rats. Blood was then collected at 60 min post dosing. Blood samples were obtained via tail vein bleed, drawn into EDTA-containing tubes and centrifuged immediately. […] Serum LH levels were determined using radioimmunoassay kit from RIAZEN—Rat LH, Zentech (Liege, Belgium). Baseline was defined as the initial basal blood sample.

Row | Compound | circulating LH levels
1 | Cc1nc(-c2nnc3n2CCN(C(=O)c2ccc(-c4cccs4)cc2)[C@@H]3C)cs1 [Compound 1, (R)-(8-methyl-3-(2-methylthiazol-4-yl)-5,6-dihydro-[1,2,4]triazolo[4,3-a]pyrazin-7(8H)-yl)(4-(thiophen-2-yl)phenyl) methanone] | significantly suppressed
2 | Cc1csc(-c2nnc3n2CCN(C(=O)c2ccc(-c4cccs4)cc2)[C@@H]3C)n1 [Compound 19, (R)-(8-methyl-3-(4-methylthiazol-2-yl)-5,6-dihydro-[1,2,4]triazolo[4,3-a]pyrazin-7(8H)-yl)(4-(thiophen-2-yl)phenyl)methanone] | significantly suppressed
